Bounds are passed on as bounds.

In this assay the target is T1, recombinant human GST-SYK (Homo sapiens, UniProt P43405).
T1 construct: purchased Carna Biosciences 08-176
Nature of the assay: Homogeneous Time-Resolved Fluorescence (HTRF) assay for the recombinant human Syk enzyme. Type of assay: biochemical. As to conditions: HTRF assay, recombinant human GST-SYK; IC50 given as class symbols; read-out: rhSYK Activity. The procedure, abridged: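 Phosphorylation of a biotinylated Syk substrate peptide (250 nM) was run for 45 min at room temperature with 25 μM ATP and 5 mM Mg. It followed a 10-min preincubation of GST-hSYK ([…]) with compound in 15 mM Tris-HCl pH 7.5, 2 mM DTT. Product was detected by time-resolved fluorescence using a europium anti-phosphotyrosine antibody plus SA-APC in EDTA-containing quench buffer.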
In general terms: In TR-FRET formats the signal depends on donor and acceptor labels being close together.
As for `Cc1cc(Nc2nccc(C(F)(F)F)n2)cc(-c2ccc(C(C)(O)CO)nc2)c1` (centres unmarked) [Example 9.56, 2-[5-(3-methyl-5-{[4-(trifluoromethyl)pyrimidin-2-yl]amino}phenyl)pyridin-2-yl]propane-1,2-diol], the IC50 is less than 100 nM.
The result for `Cc1cc(Nc2nccc(C(F)(F)F)n2)cc(-c2ccc(C(=O)NCC3COCCO3)nc2)c1` (centres unmarked) [Example 16.31] reads 100 to 1000 nM.
The result for `Cc1cc(Nc2nccc(C(F)(F)F)n2)cc(-c2ccc(C(=O)N(C)C(C3CC3)C3CC3)nc2)c1` [Example 16.36, N-(dicyclopropylmethyl)-N-methyl-5-(3-methyl-5-{[4-(trifluoromethyl)pyrimidin-2-yl]amino}phenyl)pyridine-2-carboxamide] reads 100 to 1000 nM; that for `Cc1cc(Nc2nccc(C(F)(F)F)n2)cc(-c2ccc(N[C@@H](CO)C(=O)O)nc2)c1` [Example 7.109, N-[5-(3-methyl-5-{[4-(trifluoromethyl)pyrimidin-2-yl]amino}phenyl)pyridin-2-yl]-L-serine], less than 100 nM; that for `Cc1cc(Nc2nccc(C(F)(F)F)n2)cc(-c2ccnc(NCCN)c2)c1` [Example 15.41, N-[4-(3-methyl-5-{[4-(trifluoromethyl)pyrimidin-2-yl]amino}phenyl)pyridin-2-yl]ethane-1,2-diamine], less than 100 nM.
On to `Cc1cc(Nc2nccc(C(F)(F)F)n2)cc(-c2ccc(N3CCCNC(=O)C3)nc2)c1` [Example 2.70, 4-[5-(3-methyl-5-{[4-(trifluoromethyl)pyrimidin-2-yl]amino}phenyl)pyridin-2-yl]-1,4-diazepan-2-one], for which the IC50 is less than 100 nM.
Turning to `Cc1cc(Nc2nccc(C(F)(F)F)n2)cc(-c2ccc(S(N)(=O)=O)nc2)c1` [Example 21.4, 5-(3-methyl-5-{[4-(trifluoromethyl)pyrimidin-2-yl]amino}phenyl)pyridine-2-sulfonamide], the IC50 was less than 100 nM.
Consider `CCOC(=O)CCc1ccc(-c2cc(C)cc(Nc3nccc(C)n3)c2)nc1` [Example 2.36, ethyl 3-(6-{3-methyl-5-[(4-methylpyrimidin-2-yl)amino]phenyl}pyridin-3-yl)propanoate], for which the IC50 was in the range of 1000 to 10000 nM.
For the molecule `Cc1cc(Nc2nccc(C(F)(F)F)n2)cc(-c2ccc(C(=O)N(C)CCS(C)(=O)=O)nc2)c1` [Example 16.58, N-methyl-N-[2-(methylsulfonyl)ethyl]-5-(3-methyl-5-{[4-(trifluoromethyl)pyrimidin-2-yl]amino}phenyl)pyridine-2-carboxamide], the IC50 was less than 100 nM.
The result for `O=C(O)CCc1cccc(-c2cccc(Nc3nccc(C(F)(F)F)n3)c2)n1` [Example 2.17, 3-[6-(3-{[4-(trifluoromethyl)pyrimidin-2-yl]amino}phenyl)pyridin-2-yl]propanoic acid] reads 100 to 1000 nM; that for `Cc1cc(Nc2nccc(C(F)(F)F)n2)cc(-c2cncc(C(=O)O)c2)c1` [Example 2.69, 5-(3-methyl-5-{[4-(trifluoromethyl)pyrimidin-2-yl]amino}phenyl)pyridine-3-carboxylic acid], less than 100 nM.
Next, `COc1cc(-c2cc(C)cc(Nc3nccc(C(F)(F)F)n3)c2)ccn1` [Example 4.10]: 100 to 1000 nM.
Take `CCOC(=O)CCc1cc(-c2cc(C)cc(Nc3nccc(C4CC4)n3)c2)ccn1` [Example 2.136, ethyl 3-(4-{3-[(4-cyclopropylpyrimidin-2-yl)amino]-5-methylphenyl}pyridin-2-yl)propanoate]: the IC50 fell in the range of 100 to 1000 nM.
The result for `CCC(O)(CC)c1cccc(-c2cccc(Nc3nccc(C(F)(F)F)n3)c2)n1` [Example 2.4, 3-[6-(3-{[4-(trifluoromethyl)pyrimidin-2-yl]amino}phenyl)pyridin-2-yl]pentan-3-ol] reads 100 to 1000 nM; that for `Cc1cc(Nc2nccc(C(F)(F)F)n2)cc(-c2ccc(C(F)(F)C(=O)O)nc2)c1` [Example 2.116, difluoro[5-(3-methyl-5-{[4-(trifluoromethyl)pyrimidin-2-yl]amino}phenyl)pyridin-2-yl]acetic acid], less than 100 nM.
Next, `CCOC(=O)C1(C)CCC(O)(c2ccc(-c3cc(C)cc(Nc4nccc(C(F)(F)F)n4)c3)cn2)CC1` (centres unmarked) [Example 9.44, ethyl 4-hydroxy-1-methyl-4-[5-(3-methyl-5-{[4-(trifluoromethyl)pyrimidin-2-yl]amino}phenyl)pyridin-2-yl]cyclohexanecarboxylate]: 100 to 1000 nM.
The result for `O=C(O)[C@@H]1CCN1c1ccc(-c2cc(F)cc(Nc3nccc(C(F)(F)F)n3)c2)cn1` [Example 7.127, (2S)-1-[5-(3-fluoro-5-{[4-(trifluoromethyl)pyrimidin-2-yl]amino}phenyl)pyridin-2-yl]azetidine-2-carboxylic acid] reads less than 100 nM.
On to `Cc1cc(Nc2nccc(C(F)(F)F)n2)cc(-c2ccc(C(C)(O)CO)nc2)c1` (centres unmarked) [Example 9.57, 2-[5-(3-methyl-5-{[4-(trifluoromethyl)pyrimidin-2-yl]amino}phenyl)pyridin-2-yl]propane-1,2-diol], for which the IC50 is less than 100 nM.
The result for `NC(=O)c1ccnc(-c2cccc(Nc3nccc(C(F)(F)F)n3)c2)c1` [Example 2.7, 2-(3-{[4-(trifluoromethyl)pyrimidin-2-yl]amino}phenyl)pyridine-4-carboxamide] reads 100 to 1000 nM; that for `Cc1cc(Nc2nccc(C(F)(F)F)n2)cc(-c2ccc(C(=O)N3CCCC34CCNC4=O)nc2)c1` (centres unmarked) [Example 16.44, 1-{[5-(3-methyl-5-{[4-(trifluoromethyl)pyrimidin-2-yl]amino}phenyl)pyridin-2-yl]carbonyl}-1,7-diazaspiro[4.4]nonan-6-one], less than 100 nM; that for `Cc1cc(Nc2nccc(C(F)(F)F)n2)cc(-c2ccnc(N3CCN(C=O)CC3)c2)c1` [Example 15.24, 4-[4-(3-methyl-5-{[4-(trifluoromethyl)pyrimidin-2-yl]amino}phenyl)pyridin-2-yl]piperazine-1-carbaldehyde], less than 100 nM.
The result for `CNC(=O)C1CCN(c2ccc(-c3cc(C)cc(Nc4nccc(C(F)(F)F)n4)c3)cn2)CC1` [Example 7.42, N-methyl-1-[5-(3-methyl-5-{[4-(trifluoromethyl)pyrimidin-2-yl]amino}phenyl)pyridin-2-yl]piperidine-4-carboxamide] reads 100 to 1000 nM.
The result for `Cc1cc(Nc2nccc(C(F)(F)F)n2)cc(-c2ccnc(N3CCNC(=O)CC3)c2)c1` [Example 15.42, 1-[4-(3-methyl-5-{[4-(trifluoromethyl)pyrimidin-2-yl]amino}phenyl)pyridin-2-yl]-1,4-diazepan-5-one] reads less than 100 nM; that for `Cc1cc(Nc2nccc(C(F)(F)F)n2)cc(-c2ccc(C(=O)N3CCOC3=O)nc2)c1` [Example 16.3, 3-{[5-(3-Methyl-5-{[4-(trifluoromethyl)pyrimidin-2-yl]amino}phenyl)pyridin-2-yl]carbonyl}-1,3-oxazolidin-2-one], less than 100 nM.
In the case of `Cc1cc(Nc2nccc(C(F)(F)F)n2)cc(-c2ccc(NC(CO)C(=O)O)nc2)c1` (centres unmarked) [Example 7.69, N-[5-(3-methyl-5-{[4-(trifluoromethyl)pyrimidin-2-yl]amino}phenyl)pyridin-2-yl]serine], the IC50 is less than 100 nM.
The result for `Cc1cc(Nc2nccc(C(F)(F)F)n2)cc(-c2ccc(N3CCCC4(CCNC4=O)C3)nc2)c1` (centres unmarked) [Example 7.13] reads 100 to 1000 nM.
